Assay results as given in US12077537B2 (Gilead Sciences, Inc., priority 2020, dated 2024).

system: HIV-IIIb; experiment: Antiviral assay in MT4 cells; type: cell-based; conditions: Human immunodeficiency virus 1, MT4, 120 h; MT-4 cells mixed with HIV-IIIb at m.o.i. 0.003; 5 days at 37° C.; CellTiter-Glo luminescence; 50% decrease in signal, a measure of HIV-1 replication
Method in brief: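 Compound, tested at ten 3-fold dilutions in quadruplicate in 10% FBS medium, received MT-4 cells pre-mixed 1 hour with HIV-IIIb (m.o.i. 0.003). Protection was read as luminescent cell viability (CellTiter-Glo) after 5 days' culture at 37° C.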

SMILES	EC50 [nM]
N#Cc1cc(-c2cc3sc(N4CCOCC4)nc3nc2[C@H](Cc2cc(F)cc(F)c2)NC(=O)Cn2nc(C(F)F)c3c2C(F)(F)CCC3(F)F)ccc1F [Example 3K, (S)—N-(1-(6-(3-cyano-4-fluorophenyl)-2-morpholinothiazolo[4,5-b]pyridin-5-yl)-2-(3,5-difluorophenyl)ethyl)-2-(3-(difluoromethyl)-4,4,7,7-tetrafluoro-4,5,6,7-tetrahydro-1H-indazol-1-yl)acetamide]	1800
CN(C)CCNc1nc2nc([C@H](Cc3cc(F)cc(F)c3)NC(=O)Cn3nc(C(F)(F)F)c4c3C(F)(F)[C@@H]3C[C@H]43)c(-c3cccc4c(NS(C)(=O)=O)nn(C)c34)cc2s1 [Example 65, 2-((3bS,4aR)-5,5-difluoro-3-(trifluoromethyl)-3b,4,4a,5-tetrahydro-1H-cyclopropa[3,4]cyclopenta[1,2-c]pyrazol-1-yl)-N—((S)-2-(3,5-difluorophenyl)-1-(2-((2-(dimethylamino)ethyl)amino)-6-(1-methyl-3-(methylsulfonamido)-1H-indazol-7-yl)thiazolo[4,5-b]pyridin-5-yl)ethyl)acetamide]	23.6
CN(C)C1CCN(c2nc3nc([C@H](Cc4cc(F)cc(F)c4)NC(=O)Cn4nc(C(F)(F)F)c5c4C(F)(F)[C@@H]4C[C@H]54)c(-c4cccc5c(NS(C)(=O)=O)nn(C)c45)cc3s2)CC1 [Example 66, 2-((3bS,4aR)-5,5-difluoro-3-(trifluoromethyl)-3b,4,4a,5-tetrahydro-1H-cyclopropa[3,4]cyclopenta[1,2-c]pyrazol-1-yl)-N—((S)-2-(3,5-difluorophenyl)-1-(2-(4-(dimethylamino)piperidin-1-yl)-6-(1-methyl-3-(methylsulfonamido)-1H-indazol-7-yl)thiazolo[4,5-b]pyridin-5-yl)ethyl)acetamide]	22.4
CC(CN(C)C)Nc1nc2nc([C@H](Cc3cc(F)cc(F)c3)NC(=O)Cn3nc(C(F)(F)F)c4c3C(F)(F)[C@@H]3C[C@H]43)c(-c3cccc4c(NS(C)(=O)=O)nn(C)c34)cc2s1 (stereo partly drawn) [Example 67, 2-((3bS,4aR)-5,5-difluoro-3-(trifluoromethyl)-3b,4,4a,5-tetrahydro-1H-cyclopropa[3,4]cyclopenta[1,2-c]pyrazol-1-yl)-N-((1S)-2-(3,5-difluorophenyl)-1-(2-((1-(dimethylamino)propan-2-yl)amino)-6-(1-methyl-3-(methylsulfonamido)-1H-indazol-7-yl)thiazolo[4,5-b]pyridin-5-yl)ethyl)acetamide]	27.3
CCN1CCN(c2nc3nc([C@H](Cc4cc(F)cc(F)c4)NC(=O)Cn4nc(C(F)(F)F)c5c4C(F)(F)[C@@H]4C[C@H]54)c(-c4cccc5c(NS(C)(=O)=O)nn(C)c45)cc3s2)CC1 [Example 68, 2-((3bS,4aR)-5,5-difluoro-3-(trifluoromethyl)-3b,4,4a,5-tetrahydro-1H-cyclopropa[3,4]cyclopenta[1,2-c]pyrazol-1-yl)-N—((S)-2-(3,5-difluorophenyl)-1-(2-(4-ethylpiperazin-1-yl)-6-(1-methyl-3-(methylsulfonamido)-1H-indazol-7-yl)thiazolo[4,5-b]pyridin-5-yl)ethyl)acetamide]	6.7
COCCNc1nc2nc([C@H](Cc3cc(F)cc(F)c3)NC(=O)Cn3nc(C(F)(F)F)c4c3C(F)(F)[C@@H]3C[C@H]43)c(-c3cccc4c(NS(C)(=O)=O)nn(C)c34)cc2s1 [Example 69, 2-((3bS,4aR)-5,5-difluoro-3-(trifluoromethyl)-3b,4,4a,5-tetrahydro-1H-cyclopropa[3,4]cyclopenta[1,2-c]pyrazol-1-yl)-N—((S)-2-(3,5-difluorophenyl)-1-(2-((2-methoxyethyl)amino)-6-(1-methyl-3-(methylsulfonamido)-1H-indazol-7-yl)thiazolo[4,5-b]pyridin-5-yl)ethyl)acetamide]	9.2
Cn1nc(NS(C)(=O)=O)c2cccc(-c3cc4sc(NCC5(O)CC5)nc4nc3[C@H](Cc3cc(F)cc(F)c3)NC(=O)Cn3nc(C(F)(F)F)c4c3C(F)(F)[C@@H]3C[C@H]43)c21 [Example 70, 2-((3bS,4aR)-5,5-difluoro-3-(trifluoromethyl)-3b,4,4a,5-tetrahydro-1H-cyclopropa[3,4]cyclopenta[1,2-c]pyrazol-1-yl)-N—((S)-2-(3,5-difluorophenyl)-1-(2-(((1-hydroxycyclopropyl)methyl)amino)-6-(1-methyl-3-(methylsulfonamido)-1H-indazol-7-yl)thiazolo[4,5-b]pyridin-5-yl)ethyl)acetamide]	13.8
Cn1nc(NS(C)(=O)=O)c2cccc(-c3cc4sc(NCc5ncc[nH]5)nc4nc3[C@H](Cc3cc(F)cc(F)c3)NC(=O)Cn3nc(C(F)(F)F)c4c3C(F)(F)[C@@H]3C[C@H]43)c21 [Example 71, N—((S)-1-(2-(((1H-imidazol-2-yl)methyl)amino)-6-(1-methyl-3-(methylsulfonamido)-1H-indazol-7-yl)thiazolo[4,5-b]pyridin-5-yl)-2-(3,5-difluorophenyl)ethyl)-2-((3bS,4aR)-5,5-difluoro-3-(trifluoromethyl)-3b,4,4a,5-tetrahydro-1H-cyclopropa[3,4]cyclopenta[1,2-c]pyrazol-1-yl)acetamide]	52.2
Cn1nc(NS(C)(=O)=O)c2cccc(-c3cc4sc(N5CCNC(=O)C5)nc4nc3[C@H](Cc3cc(F)cc(F)c3)NC(=O)Cn3nc(C(F)(F)F)c4c3C(F)(F)[C@@H]3C[C@H]43)c21 [Example 72, 2-((3bS,4aR)-5,5-difluoro-3-(trifluoromethyl)-3b,4,4a,5-tetrahydro-1H-cyclopropa[3,4]cyclopenta[1,2-c]pyrazol-1-yl)-N—((S)-2-(3,5-difluorophenyl)-1-(6-(1-methyl-3-(methylsulfonamido)-1H-indazol-7-yl)-2-(3-oxopiperazin-1-yl)thiazolo[4,5-b]pyridin-5-yl)ethyl)acetamide]	32
Cn1nc(NS(C)(=O)=O)c2cccc(-c3cc4sc(N5CC(C(N)=O)C5)nc4nc3[C@H](Cc3cc(F)cc(F)c3)NC(=O)Cn3nc(C(F)(F)F)c4c3C(F)(F)[C@@H]3C[C@H]43)c21 [Example 73, 1-(5-((S)-1-(2-((3bS,4aR)-5,5-difluoro-3-(trifluoromethyl)-3b,4,4a,5-tetrahydro-1H-cyclopropa[3,4]cyclopenta[1,2-c]pyrazol-1-yl)acetamido)-2-(3,5-difluorophenyl)ethyl)-6-(1-methyl-3-(methylsulfonamido)-1H-indazol-7-yl)thiazolo[4,5-b]pyridin-2-yl)azetidine-3-carboxamide]	67.7
Cn1nc(NS(C)(=O)=O)c2cccc(-c3cc4sc(N5CCC5C(N)=O)nc4nc3[C@H](Cc3cc(F)cc(F)c3)NC(=O)Cn3nc(C(F)(F)F)c4c3C(F)(F)[C@@H]3C[C@H]43)c21 (stereo partly drawn) [Example 74, 1-(5-((S)-1-(2-((3bS,4aR)-5,5-difluoro-3-(trifluoromethyl)-3b,4,4a,5-tetrahydro-1H-cyclopropa[3,4]cyclopenta[1,2-c]pyrazol-1-yl)acetamido)-2-(3,5-difluorophenyl)ethyl)-6-(1-methyl-3-(methylsulfonamido)-1H-indazol-7-yl)thiazolo[4,5-b]pyridin-2-yl)azetidine-2-carboxamide]	57.3
Cn1nc(NS(C)(=O)=O)c2cccc(-c3cc4sc(NCCN5CCOCC5)nc4nc3[C@H](Cc3cc(F)cc(F)c3)NC(=O)Cn3nc(C(F)(F)F)c4c3C(F)(F)[C@@H]3C[C@H]43)c21 [Example 75, 2-((3bS,4aR)-5,5-difluoro-3-(trifluoromethyl)-3b,4,4a,5-tetrahydro-1H-cyclopropa[3,4]cyclopenta[1,2-c]pyrazol-1-yl)-N—((S)-2-(3,5-difluorophenyl)-1-(6-(1-methyl-3-(methylsulfonamido)-1H-indazol-7-yl)-2-((2-morpholinoethyl)amino)thiazolo[4,5-b]pyridin-5-yl)ethyl)acetamide]	9.4
Cn1nc(NS(C)(=O)=O)c2cccc(-c3cc4sc(N5CCN(C6COC6)CC5)nc4nc3[C@H](Cc3cc(F)cc(F)c3)NC(=O)Cn3nc(C(F)(F)F)c4c3C(F)(F)[C@@H]3C[C@H]43)c21 [Example 76, 2-((3bS,4aR)-5,5-difluoro-3-(trifluoromethyl)-3b,4,4a,5-tetrahydro-1H-cyclopropa[3,4]cyclopenta[1,2-c]pyrazol-1-yl)-N—((S)-2-(3,5-difluorophenyl)-1-(6-(1-methyl-3-(methylsulfonamido)-1H-indazol-7-yl)-2-(4-(oxetan-3-yl)piperazin-1-yl)thiazolo[4,5-b]pyridin-5-yl)ethyl)acetamide]	4.5
Cn1nc(NS(C)(=O)=O)c2cccc(-c3cc4sc(N5CC6(COC6)C5)nc4nc3[C@H](Cc3cc(F)cc(F)c3)NC(=O)Cn3nc(C(F)(F)F)c4c3C(F)(F)[C@@H]3C[C@H]43)c21 [Example 77, 2-((3bS,4aR)-5,5-difluoro-3-(trifluoromethyl)-3b,4,4a,5-tetrahydro-1H-cyclopropa[3,4]cyclopenta[1,2-c]pyrazol-1-yl)-N—((S)-2-(3,5-difluorophenyl)-1-(6-(1-methyl-3-(methylsulfonamido)-1H-indazol-7-yl)-2-(2-oxa-6-azaspiro[3.3]heptan-6-yl)thiazolo[4,5-b]pyridin-5-yl)ethyl)acetamide]	15.8
CC1CC1Nc1nc2nc([C@H](Cc3cc(F)cc(F)c3)NC(=O)Cn3nc(C(F)(F)F)c4c3C(F)(F)[C@@H]3C[C@H]43)c(-c3cccc4c(NS(C)(=O)=O)nn(C)c34)cc2s1 (stereo partly drawn) [Example 78, 2-((3bS,4aR)-5,5-difluoro-3-(trifluoromethyl)-3b,4,4a,5-tetrahydro-1H-cyclopropa[3,4]cyclopenta[1,2-c]pyrazol-1-yl)-N-((1S)-2-(3,5-difluorophenyl)-1-(6-(1-methyl-3-(methylsulfonamido)-1H-indazol-7-yl)-2-((2-methylcyclopropyl)amino)thiazolo[4,5-b]pyridin-5-yl)ethyl)acetamide]	42.7
